Assay results published in PubChem BioAssay (NCI).
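Protocol summary: plate cells (96-well), add compound at 5 concentrations, incubate 48 h, interpolate endpoints linearly. The concentration for full growth arrest is given as TGI.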

Key:
Test in all cases: DTP human tumour cell line panel, 48 h
[1] = test system: SNB-19 CNS
[2] = test system: KM20L2 colon
[3] = test system: COLO 205 colon
[4] = test system: SNB-75 CNS
[5] = test system: SN12C renal
[6] = test system: A549 NSCLC
[7] = test system: MALME-3M melanoma
[8] = test system: HCT-15 colon
[9] = test system: HT29 colon
[10] = test system: OVCAR-3 ovarian
[11] = test system: SF-295 CNS
[12] = test system: OVCAR-4 ovarian
[13] = test system: ACHN renal
[14] = test system: EKVX NSCLC
[15] = test system: HOP-18 NSCLC
[16] = test system: SF-268 CNS
[17] = test system: RXF 393 renal
[18] = test system: SK-OV-3 ovarian
[19] = test system: DMS 114 small cell lung
[20] = test system: K-562 leukemia
[21] = test system: HOP-62 NSCLC
[22] = test system: NCI-H460 lung
[23] = test system: OVCAR-8 ovarian
[24] = test system: NCI-H23 lung
[25] = test system: UO-31 renal
[26] = test system: HCT-116 colon
[27] = test system: LOX IMVI melanoma
[28] = test system: NCI-H522 lung
[29] = test system: SNB-78 CNS
[30] = test system: LXFL 529 NSCLC
[31] = test system: UACC-257 melanoma
[32] = test system: SK-MEL-28 melanoma
[33] = test system: U251 CNS
[34] = test system: MOLT-4 leukemia
[35] = test system: TK-10 renal
[36] = test system: OVCAR-5 ovarian
[37] = test system: HL-60(TB) leukemia
[38] = test system: A498 renal
[39] = test system: KM12 colon
[40] = test system: IGROV1 ovarian
[41] = test system: M19-MEL melanoma
[42] = test system: DLD-1 colon
[43] = test system: RPMI-8226 leukemia
[44] = test system: 786-0 renal
[45] = test system: SK-MEL-5 melanoma
[46] = test system: M14 melanoma
[47] = test system: SW-620 colon
[48] = test system: DMS 273 small cell lung
[49] = test system: CCRF-CEM leukemia
[50] = test system: UACC-62 melanoma
[51] = test system: SF-539 CNS
[52] = test system: MCF7 breast
[53] = test system: DU-145 prostate
[54] = test system: NCI-H226 lung
[55] = test system: BT-549 breast
[56] = test system: NCI/ADR-RES ovarian
[57] = test system: SK-MEL-2 melanoma
[58] = test system: HS 578T breast
[59] = test system: PC-3 prostate
[60] = test system: T-47D breast
[61] = test system: HOP-92 NSCLC
[62] = test system: HCC-2998 colon
[63] = test system: MDA-N
[64] = test system: SR leukemia
[65] = test system: CAKI-1 renal
[66] = test system: MDA-MB-231 breast
[67] = test system: MDA-MB-435

SMILES: CN(C)CCC(/C=C/c1ccccc1)=N\Nc1ccccc1
- TGI [1]: 14.1 µM
- TGI [2]: 0.655 µM
- TGI [3]: 3.7 µM
- TGI [4]: 13.7 µM
- TGI [5]: 11.6 µM
- TGI [6]: 4.21 µM
- TGI [7]: 13.1 µM
- TGI [8]: 2.43 µM
- TGI [9]: 15.4 µM
- TGI [10]: 6.5 µM
- TGI [11]: 2.21 µM
- TGI [12]: 17.1 µM
- TGI [13]: 2.31 µM
- TGI [14]: 6.47 µM
- TGI [15]: 16.6 µM
- TGI [16]: 10.4 µM
- TGI [17]: 18.6 µM
- TGI [18]: 9.8 µM
- TGI [19]: 17.3 µM
- TGI [20]: 10.5 µM
- TGI [21]: 8.93 µM
- TGI [22]: 10.7 µM
- TGI [23]: 23.9 µM
- TGI [24]: 13.9 µM
- TGI [25]: 2.8 µM
- TGI [26]: 10.8 µM
- TGI [27]: 0.454 µM
- TGI [28]: 8.98 µM
- TGI [29]: 14.7 µM
- TGI [30]: 0.462 µM
- TGI [31]: 9.76 µM
- TGI [32]: 3.54 µM
- TGI [33]: 4.58 µM
- TGI [34]: 15 µM
- TGI [35]: 4.61 µM
- TGI [36]: 3.97 µM
- TGI [37]: 4.28 µM
- TGI [38]: 28.2 µM
- TGI [39]: 13.2 µM
- TGI [40]: 16.5 µM
- TGI [41]: 3.63 µM
- TGI [42]: 12.5 µM
- TGI [43]: 8.52 µM
- TGI [44]: 11.1 µM
- TGI [45]: 13.1 µM
- TGI [46]: 13 µM
- TGI [47]: 2.06 µM
- TGI [48]: 6.5 µM
- TGI [49]: 15.2 µM
- TGI [50]: 3.26 µM
- TGI [51]: 4.02 µM

SMILES: Oc1cc(Cl)cc2cccnc12
- TGI [52]: 7.87 µM
- TGI [53]: > 89.7 µM
- TGI [54]: 69.6 µM
- TGI [1]: > 100 µM
- TGI [55]: > 91.1 µM
- TGI [56]: 5.37 µM
- TGI [3]: 26.1 µM
- TGI [4]: > 100 µM
- TGI [5]: > 100 µM
- TGI [6]: > 100 µM
- TGI [57]: > 100 µM
- TGI [7]: 54.5 µM
- TGI [58]: > 48.5 µM
- TGI [8]: > 100 µM
- TGI [9]: 32.2 µM
- TGI [10]: 3.18 µM
- TGI [11]: 15.9 µM
- TGI [12]: > 100 µM
- TGI [13]: > 91.6 µM
- TGI [14]: > 30.1 µM
- TGI [16]: > 39.5 µM
- TGI [17]: 42.9 µM
- TGI [18]: > 100 µM
- TGI [20]: 2.66 µM
- TGI [21]: > 100 µM
- TGI [22]: 18.6 µM
- TGI [23]: > 100 µM
- TGI [24]: 33.4 µM
- TGI [25]: > 100 µM
- TGI [59]: > 100 µM
- TGI [26]: > 23.3 µM
- TGI [27]: 28 µM
- TGI [28]: 5.32 µM
- TGI [60]: 26.2 µM
- TGI [61]: > 100 µM
- TGI [31]: > 29.9 µM
- TGI [62]: > 70 µM
- TGI [32]: > 100 µM
- TGI [33]: > 47.9 µM
- TGI [34]: 3.98 µM
- TGI [63]: > 100 µM
- TGI [35]: > 100 µM
- TGI [36]: > 100 µM
- TGI [37]: 0.727 µM
- TGI [38]: 59.6 µM
- TGI [39]: > 100 µM
- TGI [40]: 5.12 µM
- TGI [64]: 4.27 µM
- TGI [43]: 5.31 µM
- TGI [44]: > 54.9 µM
- TGI [45]: 13.4 µM
- TGI [65]: > 100 µM
- TGI [66]: 39.7 µM
- TGI [46]: > 37.4 µM
- TGI [47]: 19.7 µM
- TGI [49]: 1.95 µM
- TGI [50]: 7.49 µM
- TGI [67]: > 77.6 µM
- TGI [51]: > 67 µM

SMILES: Nc1c(C(=O)N/N=C/c2ccccc2)sc(=S)n1-c1ccccc1
- TGI [54]: > 100 µM
- TGI [1]: > 100 µM
- TGI [3]: > 100 µM
- TGI [4]: > 100 µM
- TGI [6]: > 100 µM
- TGI [9]: > 100 µM
- TGI [10]: > 100 µM
- TGI [11]: > 100 µM
- TGI [13]: > 100 µM
- TGI [15]: > 100 µM
- TGI [16]: > 100 µM
- TGI [18]: > 100 µM
- TGI [20]: > 100 µM
- TGI [21]: > 100 µM
- TGI [22]: > 100 µM
- TGI [23]: > 100 µM
- TGI [24]: > 100 µM
- TGI [25]: > 100 µM
- TGI [26]: > 100 µM
- TGI [28]: > 100 µM
- TGI [30]: > 100 µM
- TGI [61]: > 100 µM
- TGI [31]: > 100 µM
- TGI [62]: > 100 µM
- TGI [32]: > 100 µM
- TGI [33]: > 100 µM
- TGI [34]: > 100 µM
- TGI [35]: > 100 µM
- TGI [37]: > 100 µM
- TGI [39]: > 100 µM
- TGI [40]: > 100 µM
- TGI [41]: > 100 µM
- TGI [42]: > 100 µM
- TGI [64]: > 100 µM
- TGI [43]: > 100 µM
- TGI [45]: > 100 µM
- TGI [47]: > 100 µM
- TGI [49]: > 100 µM
- TGI [50]: > 100 µM
- TGI [51]: > 100 µM

SMILES: c1ccc2c(OCCSCCCCCCCCCCSCCOc3cccc4ccccc34)cccc2c1
- TGI [54]: > 100 µM
- TGI [1]: > 100 µM
- TGI [2]: > 100 µM
- TGI [3]: > 100 µM
- TGI [4]: > 100 µM
- TGI [5]: > 100 µM
- TGI [6]: > 100 µM
- TGI [57]: > 100 µM
- TGI [7]: > 100 µM
- TGI [8]: > 100 µM
- TGI [9]: > 100 µM
- TGI [10]: > 100 µM
- TGI [11]: > 100 µM
- TGI [13]: > 100 µM
- TGI [14]: > 100 µM
- TGI [15]: > 100 µM
- TGI [16]: > 100 µM
- TGI [17]: > 100 µM
- TGI [18]: > 100 µM
- TGI [19]: > 100 µM
- TGI [20]: > 100 µM
- TGI [21]: > 100 µM
- TGI [22]: > 100 µM
- TGI [23]: > 100 µM
- TGI [24]: > 100 µM
- TGI [25]: > 100 µM
- TGI [27]: > 100 µM
- TGI [28]: > 100 µM
- TGI [29]: > 100 µM
- TGI [61]: > 100 µM
- TGI [31]: > 100 µM
- TGI [62]: > 100 µM
- TGI [32]: > 100 µM
- TGI [33]: > 100 µM
- TGI [34]: > 100 µM
- TGI [35]: > 100 µM
- TGI [36]: > 100 µM
- TGI [37]: > 100 µM
- TGI [38]: > 100 µM
- TGI [39]: > 100 µM
- TGI [40]: > 100 µM
- TGI [41]: > 100 µM
- TGI [42]: > 100 µM
- TGI [43]: > 100 µM
- TGI [44]: > 100 µM
- TGI [45]: > 100 µM
- TGI [65]: > 100 µM
- TGI [47]: > 100 µM
- TGI [48]: > 100 µM
- TGI [49]: > 100 µM
- TGI [50]: > 100 µM
- TGI [51]: > 100 µM
